Measurements published in ChEMBL document CHEMBL6134840 (J Med Chem, 2025).

Columns and labels:
[1] = Permeability across apical to basal side in human Caco-2 cells; format: ADME, cell-based
[2] = Stability in mouse liver microsome; format: ADME; conditions: microsomes

Compound: O=S(=O)(Nc1ccc2ccccc2n1)c1ccccc1
- permeability [1]: Permeable
- Stability [2]: Stable
